Assay [1] has as its system Aspergillus fumigatus. Nature of the assay: Antifungal activity against Aspergillus fumigatus. Type of assay: functional.
For assay [2], the system named is Candida tropicalis. Nature of the assay: Antifungal activity against Candida tropicalis. It is filed as functional.
Assay [3] concerns Erysipelothrix rhusiopathiae. The experiment in a line: Antibacterial activity against Erysipelothrix insidiosa. Type of assay: functional.
Assay [4] has as its system Microsporum canis. The experiment in a line: Antifungal activity against Microsporum canis. It is filed as functional.
Assay [5] concerns Mucor. The experiment in a line: Antifungal activity against Mucor species. Type of assay: functional.
Assay [6] concerns Phialophora verrucosa. Nature of the assay: Antifungal activity against Phialophora verrucosa. Type of assay: functional.
The subject of assay [7] is Saprolegnia. Nature of the assay: Antifungal activity against Saprolegnia species. It is filed as functional.
In assay [8] the test system is Sporothrix schenckii. Nature of the assay: Antifungal activity against Sporothrix schenck ii. It is filed as functional.
Assay [9] deals with Streptococcus pyogenes. The experiment in a line: Antibacterial activity against Streptococcus pyogenes. It is filed as functional.
Assay [10] relates to Staphylococcus haemolyticus. The experiment in a line: Antibacterial against Staphylococcus hemolyticus. Type of assay: functional.
The test system of assay [11] is Trichophyton benhamiae. Nature of the assay: Antifungal activity against Trichophyton mentagrophytes. Type of assay: functional, trychophyton mentagrophytes.
Assay [12] in a line: Ratio of animals cured to that of animals infected, tested in vivo for antifungal activity against cutaneous candidosis in guinea pig; 1/2. It is filed as functional.
Assay [13] deals with Trichophyton rubrum. Nature of the assay: Antifungal activity against Trichophyton rubrum. It is filed as functional.
Assay [14] has as its system Cryptococcus neoformans. The experiment in a line: Antifungal activity against Cryptococcus neoformans. Type of assay: functional.
The test system of assay [15] is Candida albicans. Nature of the assay: Antifungal activity against Candida albicans. It is filed as functional.
A short description of assay [16]: Ratio of animals cured to that of animals infected, tested in vivo for antifungal activity against cutaneous candidosis in guinea pig; 2/2. Note: test concentration or dose not given here. Type of assay: functional.
Assay [17] can be described thus: Ratio of animals cured to that of animals infected, tested in vivo for antifungal activity against vaginal candidosis in rat; 0/2. Note: test concentration or dose not given here.
Assay [18] in a line: Ratio of animals cured to that of animals […], Tested in vivo for antifungal activity against vaginal candidosis in rat; 0/2. Type of assay: functional.
Assay [19] can be described thus: Ratio of animals cured to that of animals […], Tested in vivo for antifungal activity against vaginal candidosis in rat; 1/2. It is filed as functional.
Assay [20] is described as follows: Ratio of animals cured to that of animals infected, tested in vivo for antifungal activity against vaginal candidosis in rat; 2/2.
Assay [21] in a line: Ratio of animals cured to that of animals infected, tested in vivo for antifungal activity against cutaneous candidosis in guinea pig; 0/2. Note: test concentration or dose not given here. It is filed as functional.

For the compound `Clc1ccc(C2COC(Cn3ccnc3)(c3ccc(Cl)cc3Cl)O2)cc1` (stereo unspecified), the Inhibition is below 1 µg/mL in [1]; 10 µg/mL in assay [2]; 1 µg/mL in assay [3]; below 1 µg/mL in [4]; 10 µg/mL in assay [5]; 100 µg/mL in assay [6]. Also, the Inhibition was 100 µg/mL in assay [7]; 10 µg/mL in assay [8]; 1 µg/mL in [9]; 10 µg/mL in [10]; below 1 µg/mL in assay [11]; below 1 µg/mL in [13]. Besides, the values for the Inhibition in [14] and in [15] were below 1 µg/mL and 100 µg/mL, respectively. Also, in assay [12], the Ratio was found to be 1.

As for `Clc1ccc(CC2COC(Cn3ccnc3)(c3ccc(Cl)cc3Cl)O2)cc1` (stereo unspecified), the Inhibition in [1] is 10 µg/mL; in assay [2] it was 10 µg/mL; in assay [3], below 1 µg/mL; in assay [4], below 1 µg/mL; in [5], 10 µg/mL; in [6] it was 100 µg/mL. Moreover, the Inhibition is 100 µg/mL in assay [7]; 10 µg/mL in assay [8]; 100 µg/mL in assay [9]; 10 µg/mL in [10]; below 1 µg/mL in [11]; below 1 µg/mL in [13]. Moreover, the values for the Inhibition in assay [14] and in assay [15] were 1 µg/mL and 10 µg/mL, respectively. Also, the Ratio in assay [16] is 2; in [17], 0.

Consider `Clc1ccc(C2(Cn3ccnc3)OCC(Cc3ccccc3)O2)c(Cl)c1` (stereo unspecified), for which the Inhibition in [1] was below 1 µg/mL; in [2] it was 10 µg/mL; in assay [3] it was below 1 µg/mL; in assay [4] it was below 1 µg/mL; in assay [5] it was 10 µg/mL; in assay [6], 100 µg/mL. Further, the Inhibition in [7] is 10 µg/mL; in assay [8], 10 µg/mL; in assay [9] it was 10 µg/mL; in assay [10], 10 µg/mL; in assay [11], below 1 µg/mL; in assay [13], below 1 µg/mL. Also, the Inhibition in assay [14] is below 1 µg/mL; in assay [15], 100 µg/mL. Moreover, the Ratio in assay [18] is 0; in assay [16], 2.

For the compound `Fc1ccc(C2COC(Cn3ccnc3)(c3ccc(Cl)cc3)O2)cc1` (stereo unspecified), the Inhibition is below 1 µg/mL in [1]; 100 µg/mL in assay [2]; 100 µg/mL in assay [3]; below 1 µg/mL in assay [4]; 10 µg/mL in [5]; 100 µg/mL in assay [6]. In addition, the Inhibition was 100 µg/mL in [7]; 10 µg/mL in assay [8]; 10 µg/mL in assay [9]; above 100 µg/mL in assay [10]; below 1 µg/mL in [11]; below 1 µg/mL in assay [13]. For the same compound, the Inhibition came to 10 µg/mL in [14] and 100 µg/mL in [15]. For the same compound, the Ratio stood at 0 in [18] and 1 in [16].

For the compound `Clc1ccc(C2(Cn3ccnc3)OCC(c3ccccc3Cl)O2)cc1` (stereo unspecified), the Inhibition is 100 µg/mL in [1]; above 100 µg/mL in assay [2]; 1 µg/mL in assay [3]; 10 µg/mL in [4]; 100 µg/mL in assay [5]; 100 µg/mL in assay [6]. Besides, the Inhibition in assay [7] is 10 µg/mL; in [8] it was above 1 µg/mL; in assay [9] it was 1 µg/mL; in [10] it was 10 µg/mL; in assay [11], below 1 µg/mL; in assay [13], below 1 µg/mL. The Inhibition in assay [14] is 10 µg/mL; in [15], above 100 µg/mL. Besides, the figures for the Ratio in assay [19] and in assay [16] were 1 and 2, respectively.

For `Clc1ccc(C2COC(Cn3ccnc3)(c3ccc(Cl)cc3Cl)O2)c(Cl)c1` (stereo unspecified), the Inhibition in assay [1] is below 1 µg/mL; in [2] it was above 100 µg/mL; in assay [3], below 1 µg/mL; in assay [4], 10 µg/mL; in [5], 10 µg/mL; in [6] it was 100 µg/mL. Moreover, the Inhibition is 100 µg/mL in [7]; 10 µg/mL in [8]; below 1 µg/mL in [9]; 10 µg/mL in assay [10]; below 1 µg/mL in assay [11]; below 1 µg/mL in assay [13]. Besides, the results for the Inhibition in assay [14] and in [15] were below 1 µg/mL and above 100 µg/mL, respectively. For the same compound, the Ratio in assay [20] worked out at 2.

Consider `Clc1ccc(C2(Cn3ccnc3)OCC(c3ccc(Br)cc3)O2)cc1` (stereo unspecified), for which the Inhibition in assay [1] was below 1 µg/mL; in assay [2], 10 µg/mL; in assay [3], below 1 µg/mL; in assay [4], below 1 µg/mL; in assay [5], 10 µg/mL; in assay [6], 100 µg/mL. For the same compound, the Inhibition in [7] is below 1 µg/mL; in [8] it was 10 µg/mL; in [9], below 1 µg/mL; in [10] it was 10 µg/mL; in assay [11] it was below 1 µg/mL; in [13], below 1 µg/mL. The Inhibition in assay [14] was below 1 µg/mL; in assay [15], 10 µg/mL. For the same compound, the values for the Ratio in [21] and in assay [20] were 0 and 2, respectively.

With `Clc1ccc(C2(Cn3ccnc3)OCC(c3ccccc3)O2)c(Cl)c1` (stereo unspecified), the Inhibition in assay [1] is below 1 µg/mL; in assay [2], above 100 µg/mL; in [3], 10 µg/mL; in [4], below 1 µg/mL; in assay [5], 100 µg/mL; in assay [6], 100 µg/mL. Moreover, the Inhibition in assay [7] was 100 µg/mL; in assay [8] it was 10 µg/mL; in assay [9], 10 µg/mL; in assay [10], above 100 µg/mL; in assay [11], below 1 µg/mL; in assay [13], below 1 µg/mL. Moreover, the Inhibition in [14] and in [15] was 100 µg/mL each time. Further, in [18], the Ratio is 0.

Take `Cc1ccc(C2(Cn3ccnc3)OCC(c3ccccc3Cl)O2)cc1` (stereo unspecified): the Inhibition in assay [1] was 100 µg/mL; in assay [2], above 100 µg/mL; in assay [3] it was 1 µg/mL; in assay [4], 10 µg/mL; in assay [5] it was 100 µg/mL; in [6], 100 µg/mL. The Inhibition in assay [7] was 100 µg/mL; in assay [8], 10 µg/mL; in assay [9], below 1 µg/mL; in assay [10], 100 µg/mL; in assay [11], below 1 µg/mL; in assay [13], below 1 µg/mL. The Inhibition in [14] and in assay [15] was 100 µg/mL each time. In addition, the figures for the Ratio in assay [19] and in assay [21] were 0.5 and 0, respectively.

Values taken from ChEMBL document CHEMBL1121748, “Antimycotic imidazoles. 5. Synthesis and antimycotic properties of 1-[[2-aryl-4-(arylalkyl)-1,3-dioxolan-2-yl]methyl]-1H-imidazoles” (1981).
